Source: PubChem BioAssay (NCI)
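The compound was tested at five concentrations on cells cultured in 96-well plates, with a 48-hour exposure period. The concentration for 50% growth inhibition is given as GI50. The concentration for full growth arrest is given as TGI.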

Key:
Assay in all cases: NCI tumour cell line growth inhibition, 48 h
[1] = test system: CAKI-1 renal
[2] = test system: SW-620 colon
[3] = test system: UACC-257 melanoma
[4] = test system: IGROV1 ovarian
[5] = test system: 786-0 renal
[6] = test system: SN12C renal
[7] = test system: HOP-62 NSCLC
[8] = test system: HCT-116 colon
[9] = test system: T-47D breast
[10] = test system: KM12 colon
[11] = test system: MDA-MB-231 breast
[12] = test system: NCI/ADR-RES ovarian
[13] = test system: TK-10 renal
[14] = test system: OVCAR-3 ovarian
[15] = test system: OVCAR-4 ovarian
[16] = test system: MALME-3M melanoma
[17] = test system: MDA-MB-435
[18] = test system: M14 melanoma
[19] = test system: SK-MEL-5 melanoma
[20] = test system: SK-MEL-28 melanoma
[21] = test system: BT-549 breast
[22] = test system: NCI-H226 lung
[23] = test system: EKVX NSCLC
[24] = test system: OVCAR-5 ovarian
[25] = test system: SK-MEL-2 melanoma
[26] = test system: SF-295 CNS
[27] = test system: A498 renal
[28] = test system: NCI-H23 lung
[29] = test system: CCRF-CEM leukemia

Work on c1ccc(-c2nc([P+](c3ccccc3)(c3ccccc3)c3ccccc3)c(N3CCOCC3)o2)cc1 yielded a GI50 [1] of 2260 nM, a TGI [1] of 6470 nM and a GI50 [2] of 926 nM. It also gave a TGI [2] of 20100 nM, a GI50 [3] of 406 nM and a TGI [3] of 3480 nM. It also gave a GI50 [4] of 557 nM, a TGI [4] of 8350 nM and a GI50 [5] of 3920 nM. The TGI [5] was 28800 nM, the GI50 [6] was 934 nM and the TGI [6] was 9150 nM. For the same molecule, the GI50 [7] was 2110 nM, the TGI [7] was 10600 nM and the GI50 [8] was 1040 nM. The TGI [8] was 10700 nM, the GI50 [9] was 358 nM and the TGI [9] was 6810 nM. For the same molecule, the GI50 [10] was 385 nM, the TGI [10] was 2040 nM and the GI50 [11] was 920 nM. For the same molecule, the TGI [11] was 7120 nM, the GI50 [12] was > 76400 nM and the TGI [12] was > 100000 nM. For the same molecule, the GI50 [13] was 2750 nM, the TGI [13] was 15000 nM and the GI50 [14] was 474 nM. The TGI [14] was 4280 nM, the GI50 [15] was 424 nM and the TGI [15] was 6270 nM. For the same molecule, the GI50 [16] was 529 nM, the TGI [16] was 6130 nM and the GI50 [17] was 445 nM. For the same molecule, the TGI [17] was 4550 nM, the GI50 [18] was 1560 nM and the TGI [18] was 10900 nM. It also gave a GI50 [19] of 654 nM, a TGI [19] of 1960 nM and a GI50 [20] of 704 nM. The TGI [20] was 13100 nM, the GI50 [21] was 523 nM and the TGI [21] was 6770 nM. For the same molecule, the GI50 [22] was 1980 nM, the TGI [22] was 8500 nM and the GI50 [23] was 2310 nM. For the same molecule, the TGI [23] was 29500 nM, the GI50 [24] was 2450 nM and the TGI [24] was 12800 nM. It also gave a GI50 [25] of 880 nM, a TGI [25] of 4030 nM and a GI50 [26] of 2090 nM. For the same molecule, the TGI [26] was 5540 nM, the GI50 [27] was 1710 nM and the TGI [27] was 5580 nM. For the same molecule, the GI50 [28] was 1910 nM, the TGI [28] was 7240 nM and the GI50 [29] was 1130 nM. It also gave a TGI [29] of 36600 nM.
